What was measured:
[1] = system: asexual blood stage of Pf; experiment: Pf asexual blood stage potency (Pf IC50); type: cell-based, Plasmodium falciparum; conditions: Plasmodium falciparum
Text: The TAPs series emerged from a high-throughput screen (HTS) of 500,000 compounds from the AstraZeneca corporate library against the asexual blood stage of Pf using a high-content image-based approach. The procedure for synthesis of compounds 1-6, 10, 11 using a scheme similar to Fig. 1 is provided in Supplementary Note 1. The initial hit provided multiple diversification points for a robust lead optimization campaign. […] Compounds with 2-pyridyl modification at the 2-amino position of pyrimidine core improved potency and solubility at the cost of potent activity against hERG and acetylcholine esterase (AChE; compounds 3-6; Table 1). […] The observed hERG and AChE selectivity improvement with 7 could be attributed to the polar nature of the pyrazole group and its role in reducing the pKa of the core pyrimidine ring. […] To assess the potential for cross-resistance, representative TAPs were screened against a panel of clinical isolates and in vitro-generated mutant strains displaying varying mechanisms of resistance to antimalarial agents currently in use and under development, respectively, (Supplementary Tables 1–3).

hERG = target: T1, hERG (Homo sapiens, UniProt Q12809); experiment: electrophysiology-based hERG assay using IonWorks HT (CHO cells); type: cell-based; conditions: hERG IC50
T1 construct: expressed in transfected cells; host or cells: CHO cells
Experimental: hERG IC50 was determined in an electrophysiology-based hERG assay using IonWorks HT (CHO cells) as described earlier.

[2] = target: T2, acetylcholine esterase (AChE) (Homo sapiens, UniProt P22303); experiment: AChE enzyme activity assay (CEREP); type: biochemical; conditions: read-out: AChE IC50
T2 construct: purchased CEREP, France (external assay service) 0363
Experimental: (§1) An in vitro pharmacological profiling panel was specifically designed for the detection of potential high- risk clinical adverse drug reactions. The panel comprised of 26 diverse targets (6 enzymes, 2 transporters, 9 G-protein-coupled receptors (GPCRs), 5 ion channels along with hERG, M2, alpha1A and AchE) and was conduced externally by CEREP, France […]. […] Detailed methodology for in vitro pharmacological profiling assays provided by CEREP can be found at http://www.cerep.fr, with specific reference to the AChE (cat. no. 0363), Muscarinic M1 receptor (cat. no. 0091) and Adrenergic α1A receptor (cat. no. 2338) assays. For enzyme and kinase assays, the results were expressed as a percent inhibition of control-specific activity obtained in the presence of the test compound. The IC50 values (concentration causing a half-maximal inhibition of control-specific activity) and Hill coefficients (nH) were determined by nonlinear regression analysis of the inhibition/concentration–response curves using Hill equation curve fitting as described earlier.

Muscarinic M2 receptor = target: T3, Muscarinic M2 receptor (Homo sapiens, UniProt P08172); experiment: Muscarinic M2 receptor radioligand binding (CEREP)
T3 construct: purchased CEREP, France (external assay service)
T3 sequence (P08172 1-466): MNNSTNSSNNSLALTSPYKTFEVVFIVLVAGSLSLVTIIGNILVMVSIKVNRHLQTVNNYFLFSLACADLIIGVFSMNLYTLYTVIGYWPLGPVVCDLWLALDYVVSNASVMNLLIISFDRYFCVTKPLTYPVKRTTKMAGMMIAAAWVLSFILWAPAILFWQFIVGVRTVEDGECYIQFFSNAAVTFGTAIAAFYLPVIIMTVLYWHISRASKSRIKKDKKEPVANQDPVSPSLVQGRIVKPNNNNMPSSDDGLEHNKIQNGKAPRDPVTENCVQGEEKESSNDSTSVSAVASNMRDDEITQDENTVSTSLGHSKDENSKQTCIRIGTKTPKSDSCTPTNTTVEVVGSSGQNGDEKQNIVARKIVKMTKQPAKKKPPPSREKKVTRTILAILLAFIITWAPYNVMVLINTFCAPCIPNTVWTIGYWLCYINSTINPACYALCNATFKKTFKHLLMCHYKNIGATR
Experimental: as §1
(§2) For radioligand binding assays, the results are expressed as % inhibition of control-specific binding obtained in the presence of the test compounds. The IC50 values (concentration causing a half-maximal inhibition of control-specific binding) and Hill coefficients (nH) were determined by nonlinear regression analysis of the competition curves generated with mean replicate values using Hill equation curve fitting. The inhibition constants (Ki) were subsequently calculated by applying the Cheng Prusoff equation[38].

α1A adrenoceptor = target: T4, α1A adrenoceptor (Homo sapiens, UniProt P35348); experiment: α1A adrenoceptor radioligand binding (CEREP)
T4 construct: purchased CEREP, France (external assay service) 2338
T4 sequence (P35348 1-466): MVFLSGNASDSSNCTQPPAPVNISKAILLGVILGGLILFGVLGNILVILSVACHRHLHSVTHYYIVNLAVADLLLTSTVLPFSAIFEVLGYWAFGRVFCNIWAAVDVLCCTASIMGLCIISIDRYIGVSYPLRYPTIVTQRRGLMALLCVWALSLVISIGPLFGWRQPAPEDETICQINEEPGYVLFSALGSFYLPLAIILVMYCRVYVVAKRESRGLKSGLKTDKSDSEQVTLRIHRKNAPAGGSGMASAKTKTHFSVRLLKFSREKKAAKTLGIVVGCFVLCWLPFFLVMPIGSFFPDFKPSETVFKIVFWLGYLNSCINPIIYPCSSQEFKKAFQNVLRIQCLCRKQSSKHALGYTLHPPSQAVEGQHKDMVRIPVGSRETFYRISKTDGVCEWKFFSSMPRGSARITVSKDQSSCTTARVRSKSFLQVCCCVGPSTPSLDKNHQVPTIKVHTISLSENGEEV
Experimental: as §1, §2

[3] = Rat blood PK, IV and oral; type: in vivo; conditions: Wistar, rat, whole blood, oral, 10 mg/kg, rat; read-out: Rat F (bioavailability)
Experimental: Blood samples were collected at 0.083, 0.25, 0.5, 1, 2, 4, 8, 23, 32, 48, 55 and 72 hours after an IV dose of 2 mg/kg or an oral dose of 10 mg/kg. Oral administration was done using oral gavage at a maximum dose volume of 10 mL/kg. Solution formulation containing 10% NMP, 20% DMA in dextrose / normal saline was used for IV administration and a suspension in 0.5% w/v HPMC with 0.1% v/v Tween 80 was used for oral administration. 25 µl of blood samples were mixed with 100 µL of Milli-Q water and vortexed for 5 minutes in the plate shaker at a speed of 900 rpm to ensure complete hemolysis. Proteins were precipitated by adding 125 µL of cold acetonotrile containing internal standard. After extraction on a plate shaker for 10 minutes at 900 rpm, the plate was centrifuged at 4000 rpm for 20 minutes. The supernatant (180 µL) was transferred to another plate and 2.5 µL of Zinc sulphate (200 mM) was added to separate the heme fraction. This mixture was centrifuged and 10 µL of the supernatant was analyzed by LC-MS/MS. […]

Pf 7G8 = experiment: microbe, parasite or virus in culture; type: cell-based; conditions: Plasmodium falciparum
Text: (§3) tested in duplicate from two independent experiments using a SYBR-Green based assay2.
(§4) (1 picture or pasted object on this page, not shown here)

Pf DD2 = experiment: microbe, parasite or virus in culture; type: cell-based; conditions: Plasmodium falciparum
Text: as §3, §4

Pf K1 = experiment: microbe, parasite or virus in culture; type: cell-based; conditions: Plasmodium falciparum
Text: as §3, §4

Pf NF54 = experiment: microbe, parasite or virus in culture; type: cell-based; conditions: Plasmodium falciparum
Text: as §3, §4

Pf SB1 = experiment: microbe, parasite or virus in culture; type: cell-based; conditions: Plasmodium falciparum
Text: as §3, §4

Pf W2 = experiment: microbe, parasite or virus in culture; type: cell-based; conditions: Plasmodium falciparum
Text: as §3, §4

Caco2 permeability = conditions: human, Caco-2

T1 sequence (Q12809 whole entry): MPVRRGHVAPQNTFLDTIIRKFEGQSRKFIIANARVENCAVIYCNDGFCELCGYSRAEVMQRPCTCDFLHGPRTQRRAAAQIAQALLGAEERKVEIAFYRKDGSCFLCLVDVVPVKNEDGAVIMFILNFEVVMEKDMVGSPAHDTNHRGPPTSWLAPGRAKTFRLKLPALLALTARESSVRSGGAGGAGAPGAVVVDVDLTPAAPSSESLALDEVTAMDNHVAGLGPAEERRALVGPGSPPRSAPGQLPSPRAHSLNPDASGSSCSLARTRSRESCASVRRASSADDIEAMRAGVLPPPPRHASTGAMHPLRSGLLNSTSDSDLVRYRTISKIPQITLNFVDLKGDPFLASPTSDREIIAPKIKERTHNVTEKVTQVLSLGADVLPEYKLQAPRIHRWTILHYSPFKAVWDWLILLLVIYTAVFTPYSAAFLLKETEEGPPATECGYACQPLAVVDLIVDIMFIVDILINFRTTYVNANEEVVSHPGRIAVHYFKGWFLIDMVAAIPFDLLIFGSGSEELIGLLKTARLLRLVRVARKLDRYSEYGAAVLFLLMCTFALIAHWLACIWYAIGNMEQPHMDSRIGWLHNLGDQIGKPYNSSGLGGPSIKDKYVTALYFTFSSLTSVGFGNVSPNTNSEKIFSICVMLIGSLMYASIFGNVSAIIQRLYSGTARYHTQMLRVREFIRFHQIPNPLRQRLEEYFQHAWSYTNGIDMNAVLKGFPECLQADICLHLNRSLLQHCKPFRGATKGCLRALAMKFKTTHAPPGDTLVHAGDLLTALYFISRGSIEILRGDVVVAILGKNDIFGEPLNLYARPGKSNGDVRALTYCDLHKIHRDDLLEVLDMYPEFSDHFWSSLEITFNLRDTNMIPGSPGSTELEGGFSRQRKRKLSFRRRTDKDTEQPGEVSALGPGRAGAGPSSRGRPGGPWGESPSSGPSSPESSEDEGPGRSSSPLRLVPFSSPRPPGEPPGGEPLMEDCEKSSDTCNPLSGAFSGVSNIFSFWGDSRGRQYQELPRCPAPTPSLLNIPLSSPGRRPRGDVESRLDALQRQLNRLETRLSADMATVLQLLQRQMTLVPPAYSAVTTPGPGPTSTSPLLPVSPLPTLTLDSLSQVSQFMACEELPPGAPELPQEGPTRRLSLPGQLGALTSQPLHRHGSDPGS
T2 sequence (P22303 32-614): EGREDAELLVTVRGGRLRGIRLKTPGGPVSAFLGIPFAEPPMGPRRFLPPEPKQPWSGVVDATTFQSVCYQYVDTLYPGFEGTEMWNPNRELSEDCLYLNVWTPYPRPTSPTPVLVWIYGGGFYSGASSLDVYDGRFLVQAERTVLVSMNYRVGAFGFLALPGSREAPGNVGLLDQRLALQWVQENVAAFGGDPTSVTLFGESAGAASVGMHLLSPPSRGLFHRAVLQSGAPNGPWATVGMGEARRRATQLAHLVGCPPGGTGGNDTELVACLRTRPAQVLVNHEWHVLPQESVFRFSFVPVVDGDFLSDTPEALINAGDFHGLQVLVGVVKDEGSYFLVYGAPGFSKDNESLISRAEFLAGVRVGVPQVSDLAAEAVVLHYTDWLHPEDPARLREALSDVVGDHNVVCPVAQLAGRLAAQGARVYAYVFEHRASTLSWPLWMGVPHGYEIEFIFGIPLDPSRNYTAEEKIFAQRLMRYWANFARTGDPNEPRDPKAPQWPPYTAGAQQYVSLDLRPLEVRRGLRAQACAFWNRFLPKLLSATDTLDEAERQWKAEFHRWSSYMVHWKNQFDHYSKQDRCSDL

With `CCc1cc(Nc2ncc(N3CCN[C@H](C)C3)c(Nc3cc(C)n(C)n3)n2)nc(C)c1F.Cl.Cl` [compound 8, (R)-N4-(1,5-dimethyl-1H-pyrazol-3-yl)-N2-(4-ethyl-5-fluoro-6-methylpyridin-2-yl)-5-(3-methylpiperazin-1-yl)pyrimidine-2,4-diamine dihydrochloride] the IC50 [1] was 25 nM, the IC50 (hERG) was greater than 30000 nM and the IC50 [2] was 30000 nM. The IC50 (Muscarinic M2 receptor) was 3100 nM, the IC50 (α1A adrenoceptor) was 1300 nM and the bioavailability [3] was 31%. The IC50 (Pf 7G8) was 74.4 ± 17 nM, the IC50 (Pf DD2) was 38.3 ± 1.5 nM and the IC50 (Pf K1) was 64.7 ± 12 nM. For the same molecule, the IC50 (Pf NF54) was 57.2 ± 20 nM, the IC50 (Pf SB1) was 34.7 ± 3 nM and the IC50 (Pf W2) was 78.8 ± 7 nM. The Papp A→B (Caco2 permeability) was 4 ×10⁻⁶ cm/s.
